According to patent US20260070945A1, “MACROCYCLIC IMMUNOMODULATORS” (Bristol-Myers Squibb Company, priority 2022, published 2026):
*1 amine or outer side, *2 acyl side, *3 side chain or, on linkers, in order; H or OH if unused. Where a SMILES comes first, the peptide text is derived from it. Bridges are numbered along the chain shown (N, C = ends). [ ]: non-standard residue; d: D form. The star is where a group is joined. ξ: configuration not given here. Phe(3-CF3) = N[C@@H](Cc1cccc(C(F)(F)F)c1)C(=O)O; Phe(4-COOH) = N[C@@H](Cc1ccc(C(=O)O)cc1)C(=O)O; Bip = N[C@@H](Cc1ccc(-c2ccccc2)cc1)C(=O)O; Phe(4-NH2) = Nc1ccc(C[C@H](N)C(=O)O)cc1; Phe(3-Me) = Cc1cccc(C[C@H](N)C(=O)O)c1; γGlu = O=C(O)[C@H](CCC(=O)[*:2])N[*:1]; NH(CH2)12COOH = O=C(O)CCCCCCCCCCCCN*; Val(3-OH) = CC(C)(O)[C@H](N)C(=O)O; aIle = CC[C@@H](C)[C@H](N)C(=O)O; 4Pal = N[C@@H](Cc1ccncc1)C(=O)O; Cha = N[C@@H](CC1CCCCC1)C(=O)O; Cit = NC(=O)NCCC[C@H](N)C(=O)O; Ile(3ξ) = CCC(C)[C@H](N)C(=O)O; Thr(3ξ) = CC(O)[C@H](N)C(=O)O; 12Ado = NCCCCCCCCCCCC(=O)O; Carboxymethyl = O=C(O)C*; NMeA = CN[C@@H](C)C(=O)O; Orn = NCCC[C@H](N)C(=O)O; Pra = C#CC[C@H](N)C(=O)O; dDap = NC[C@@H](N)C(=O)O; Aun = NCCCCCCCCCCC(=O)O; Dab = NCC[C@H](N)C(=O)O; Dap = NC[C@H](N)C(=O)O; AEEA = NCCOCCOCC(=O)O

target: T1, PD-1/PD-L1 interaction (PE-labeled human PD-L1-Ig binding to Jurkat cell line over-expressing human PD-1) (Homo sapiens, UniProt Q15116); test: Jurkat-PD-1 Cell Binding High-Content Screening Assay (CBA); conditions: Jurkat-hPD-1 cells, PE-labeled PD-L1-Ig 20 nM final; read-out: Jurkat HPD1 PDL1 IC50
T1 construct: expressed in transfected cells; host or cells: Jurkat
Experimental: Example 2: Jurkat-PD-1 Cell Binding High-Content Screening Assay (CBA)
Phycoerythrin (PE) was covalently linked to the Ig epitope tag of human PD-L1-Ig and fluorescently-labeled PD-L1-Ig was used for binding studies with a Jurkat cell line over-expressing human PD-1 (Jurkat-PD-1). Briefly, 8×10^3 Jurkat-hPD-1 cells were seeded into 384 well plates in 20 μl of DMEM supplemented with 10% fetal calf serum. 100 nl of compound was added to cells followed by incubation at 37° C. for 2 hours. Then, 5 μl of PE-labeled PD-L1-Ig (20 nM final), diluted in DMEM supplemented with 10% fetal calf serum. After 1 hour incubation, cells were fixed with […] in dPBS containing 10 μg/ml Hoechst 33342 and then washed 3× in 100 μl dPBS. Data was collected and processed using a Cell Insight NXT High Content Imager and associated software.

T1 sequence (Q15116 25-288): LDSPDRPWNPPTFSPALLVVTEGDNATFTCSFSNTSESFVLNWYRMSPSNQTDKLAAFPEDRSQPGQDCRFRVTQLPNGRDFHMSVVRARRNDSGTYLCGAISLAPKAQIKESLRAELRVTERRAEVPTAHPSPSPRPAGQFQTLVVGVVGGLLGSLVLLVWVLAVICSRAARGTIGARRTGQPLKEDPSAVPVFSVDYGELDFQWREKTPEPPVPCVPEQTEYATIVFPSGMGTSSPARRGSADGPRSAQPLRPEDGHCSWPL

Structure (SMILES)	IC50 [nM]
Cc1cccc(C[C@@H]2NC(=O)[C@H](CC(=O)O)NC(=O)[C@H](Cc3ccc(C(=O)O)cc3)NC(=O)[C@H](Cc3ccc(OCC(=O)O)cc3)NC(=O)CSC[C@@H](C(=O)NCC(=O)N[C@@H](CCC(=O)NCCOCCOCC(=O)N[C@@H](CCC(=O)O)C(=O)NCCCCCCCCCCC(=O)O)C(=O)O)NC(=O)[C@H](CO)NC(=O)[C@H](C(C)C)NC(=O)[C@H](CC(C)C)NC(=O)[C@H](CC(N)=O)NC(=O)[C@@H](CC(C)C)NC(=O)[C@H](C)N(C)C(=O)[C@H](C(C)C)NC(=O)[C@H](Cc3ccc(-c4ccccc4)cc3)NC(=O)[C@H](CC(C)C)NC2=O)c1 [Example 1015] ({CH2CO}-Y(Carboxymethyl)[Phe(4-COOH)]D[Phe(3-Me)]L[Bip]V[NMeA][dL]NLVSCG[γGlu][AEEA]E[Aun]-OH; thioether N-14)	54.1
CCC(C)[C@@H]1NC(=O)[C@H](Cc2ccc(-c3ccccc3)cc2)NC(=O)[C@H](C(C)C)NC(=O)[C@H](Cc2c[nH]c3ccccc23)NC(=O)[C@H](CC(=O)O)NC(=O)[C@H](Cc2ccc(OCC(=O)O)cc2)NC(=O)[C@H](Cc2ccncc2)NC(=O)CSC[C@@H](C(=O)N[C@H](CN)C(=O)NCCOCCOCC(=O)N[C@@H](CCC(=O)NCCCCCCCCCCC(=O)O)C(=O)O)NC(=O)[C@H](CO)NC(=O)[C@H](C(C)C)NC(=O)[C@H](CC2CCCCC2)NC(=O)[C@H](CC(N)=O)NC(=O)[C@@H](CC(C)C)NC(=O)[C@H](C)N(C)C1=O (stereo partly drawn) [Example 2067] ({CH2CO}-[4Pal]Y(Carboxymethyl)DWV[Bip][Ile(3ξ)][NMeA][dL]N[Cha]VSC[dDap][AEEA][γGlu][Aun]-OH; thioether N-14)	35.2
Cc1cccc(C[C@@H]2NC(=O)[C@H](CC(=O)O)NC(=O)[C@H](Cc3ccc(OCC(=O)O)cc3)NC(=O)[C@H](Cc3ccc(N)cc3)NC(=O)CSC[C@@H](C(=O)N[C@@H](CCN)C(=O)NCCCCCCCCCCC(=O)O)NC(=O)[C@H](CO)NC(=O)[C@H](C(C)C)NC(=O)[C@H](CC3CCCCC3)NC(=O)[C@H](CCN)NC(=O)[C@@H](CC(C)C)NC(=O)[C@H](C)N(C)C(=O)[C@H](Cc3ccc(O)cc3)NC(=O)[C@H](Cc3ccc(-c4ccccc4)cc3)NC(=O)[C@H](Cc3ccc(OCC(=O)O)cc3)NC2=O)c1 [Example 1279] ({CH2CO}-[Phe(4-NH2)]Y(Carboxymethyl)D[Phe(3-Me)]Y(Carboxymethyl)[Bip]Y[NMeA][dL][Dab][Cha]VSC[Dab][Aun]-OH; thioether N-14)	39.3
Cc1cccc(C[C@@H]2NC(=O)[C@H](CC(=O)O)NC(=O)[C@H](Cc3ccc(C(=O)O)cc3)NC(=O)[C@H](Cc3ccc(OCC(=O)O)cc3)NC(=O)CSC[C@@H](C(=O)N[C@@H](CCN)C(=O)NCCCCCCCCCCC(=O)O)NC(=O)[C@H](C(C)O)NC(=O)[C@H](C(C)C)NC(=O)[C@H](CC3CCCCC3)NC(=O)[C@H](CCN)NC(=O)[C@@H](CC(C)C)NC(=O)[C@H](C)N(C)C(=O)[C@H](Cc3ccc(C(=O)O)cc3)NC(=O)[C@H](Cc3ccc(-c4ccccc4)cc3)NC(=O)[C@H](CC(C)C)NC2=O)c1 (stereo partly drawn) [Example 2335] ({CH2CO}-Y(Carboxymethyl)[Phe(4-COOH)]D[Phe(3-Me)]L[Bip][Phe(4-COOH)][NMeA][dL][Dab][Cha]V[Thr(3ξ)]C[Dab][Aun]-OH; thioether N-14)	47.4
CC[C@@H](C)[C@@H]1NC(=O)[C@H](Cc2ccc(-c3ccccc3)cc2)NC(=O)[C@H](C(C)C)NC(=O)[C@H](Cc2c[nH]c3ccccc23)NC(=O)[C@H](CC(=O)O)NC(=O)[C@H](Cc2ccc(OCC(=O)O)cc2)NC(=O)[C@H](Cc2ccncc2)NC(=O)CSC[C@@H](C(=O)NCCOCCOCC(=O)N[C@@H](CCC(=O)NCCOCCOCC(=O)N[C@@H](CCC(=O)NCCOCCOCC(=O)N[C@@H](CCCN)C(=O)NCCCCCCCCCCC(=O)O)C(=O)O)C(=O)O)NC(=O)[C@H](CO)NC(=O)[C@H](C(C)C)NC(=O)[C@H](CC2CCCCC2)NC(=O)[C@H](CC(N)=O)NC(=O)[C@@H](CC(C)C)NC(=O)[C@H](C)N(C)C1=O [Example 2019] ({CH2CO}-[4Pal]Y(Carboxymethyl)DWV[Bip][aIle][NMeA][dL]N[Cha]VSC[AEEA][γGlu][AEEA][γGlu][AEEA][Orn][Aun]-OH; thioether N-14)	24.9
CCC(C)[C@@H]1NC(=O)[C@H](Cc2ccc(-c3ccccc3)cc2)NC(=O)[C@H](CC(C)C)NC(=O)[C@H](Cc2c[nH]c3ccccc23)NC(=O)[C@H](CC(=O)O)NC(=O)[C@H](Cc2ccc(C(=O)O)cc2)NC(=O)[C@H](Cc2ccc(OCC(=O)O)cc2)NC(=O)CSC[C@@H](C(=O)NCCOCCOCC(=O)N[C@@H](CN)C(=O)NCCCCCCCCCCC(=O)O)NC(=O)[C@H](CO)NC(=O)[C@H](C(C)C)NC(=O)[C@H](CC2CCCCC2)NC(=O)[C@H](CC(N)=O)NC(=O)[C@@H](CC(C)C)NC(=O)[C@H](C)N(C)C1=O (stereo partly drawn) [Example 2066] ({CH2CO}-Y(Carboxymethyl)[Phe(4-COOH)]DWL[Bip][Ile(3ξ)][NMeA][dL]N[Cha]VSC[AEEA][Dap][Aun]-OH; thioether N-14)	110

Second part, the compound after the results:

IC50 [nM]	Structure (SMILES)
15.4	CC(C)C[C@@H]1NC(=O)[C@H](Cc2c[nH]c3ccccc23)NC(=O)[C@H](CC(=O)O)NC(=O)[C@H](Cc2ccncc2)NC(=O)[C@H](Cc2ccc(OCC(=O)O)cc2)NC(=O)CSC[C@@H](C(=O)N[C@@H](CCCCN)C(=O)NCCCCCCCCCCC(=O)O)NC(=O)[C@H](CO)NC(=O)[C@H](C(C)C)NC(=O)[C@H](CC2CCCCC2)NC(=O)[C@H](CCN)NC(=O)[C@@H](CC(C)C)NC(=O)[C@H](C)N(C)C(=O)[C@H](C(C)C)NC(=O)[C@H](Cc2ccc(-c3ccccc3)cc2)NC1=O [Example 1085] ({CH2CO}-Y(Carboxymethyl)[4Pal]DWL[Bip]V[NMeA][dL][Dab][Cha]VSCK[Aun]-OH; thioether N-14)
14.9	C#CC[C@H](NC(=O)[C@H](CCN)NC(=O)[C@@H]1CSCC(=O)N[C@@H]([C@@H](C)O)C(=O)N[C@@H](Cc2ccc(OCC(=O)O)cc2)C(=O)N[C@@H](CC(=O)O)C(=O)N[C@@H](Cc2cccc(C(F)(F)F)c2)C(=O)N[C@@H](Cc2ccc(C(=O)O)cc2)C(=O)N[C@@H](Cc2ccc(-c3ccccc3)cc2)C(=O)N[C@@H](Cc2ccc(OCC(=O)O)cc2)C(=O)N(C)[C@@H](C)C(=O)N[C@H](CC(C)C)C(=O)N[C@@H](CCN)C(=O)N[C@@H](CC2CCCCC2)C(=O)N[C@@H](C(C)C)C(=O)N[C@@H]([C@@H](C)O)C(=O)N1)C(=O)NCCCCCCCCCCC(=O)O [Example 1238] ({CH2CO}-TY(Carboxymethyl)D[Phe(3-CF3)][Phe(4-COOH)][Bip]Y(Carboxymethyl)[NMeA][dL][Dab][Cha]VTC[Dab][Pra][Aun]-OH; thioether N-14)
13.2	CC(C)C[C@H]1NC(=O)[C@H](C)N(C)C(=O)[C@H](CCCNC(N)=O)NC(=O)[C@H](Cc2ccc(-c3ccccc3)cc2)NC(=O)[C@H](Cc2ccc(C(=O)O)cc2)NC(=O)[C@H](Cc2cccc(C(F)(F)F)c2)NC(=O)[C@H](CC(=O)O)NC(=O)[C@H](Cc2ccc(OCC(=O)O)cc2)NC(=O)[C@H](Cc2ccc(C(=O)O)cc2)NC(=O)CSC[C@@H](C(=O)N[C@@H](CCN)C(=O)NCCCCCCCCCCCCC(=O)O)NC(=O)[C@H](CCC(=O)O)NC(=O)[C@H](C(C)C)NC(=O)[C@H](CC2CCCCC2)NC(=O)[C@H](CCN)NC1=O [Example 1147] ({CH2CO}-[Phe(4-COOH)]Y(Carboxymethyl)D[Phe(3-CF3)][Phe(4-COOH)][Bip][Cit][NMeA][dL][Dab][Cha]VEC[Dab]-{NH(CH2)12COOH}; thioether N-14)
12.8	CCC(C)[C@@H]1NC(=O)[C@H](Cc2ccc(-c3ccccc3)cc2)NC(=O)[C@H](CC(C)C)NC(=O)[C@H](Cc2cccc(C)c2)NC(=O)[C@H](CC(=O)O)NC(=O)[C@H](Cc2ccc(OCC(=O)O)cc2)NC(=O)[C@H](Cc2ccncc2)NC(=O)CSC[C@@H](C(=O)N[C@@H](CCCN)C(=O)NCCOCCOCC(=O)NCCCCCCCCCCC(=O)O)NC(=O)[C@H](C(C)O)NC(=O)[C@H](C(C)C)NC(=O)[C@H](CC2CCCCC2)NC(=O)[C@H](CCN)NC(=O)[C@@H](CC(C)C)NC(=O)[C@H](C)N(C)C1=O (stereo partly drawn) [Example 2088] ({CH2CO}-[4Pal]Y(Carboxymethyl)D[Phe(3-Me)]L[Bip][Ile(3ξ)][NMeA][dL][Dab][Cha]V[Thr(3ξ)]C[Orn][AEEA][Aun]-OH; thioether N-14)
8.3	CC(=O)NCCCC[C@@H]1NC(=O)[C@H](Cc2ccc(-c3ccccc3)cc2)NC(=O)[C@H](C(C)C)NC(=O)[C@H](Cc2cccc(C)c2)NC(=O)[C@H](CC(=O)O)NC(=O)[C@H](Cc2ccc(OCC(=O)O)cc2)NC(=O)[C@H](CCCNC(=N)N)NC(=O)CSC[C@@H](C(=O)N[C@H](CCC(=O)O)C(=O)NCCCCCCCCCCCC(=O)O)NC(=O)[C@H](C(C)O)NC(=O)[C@H](C(C)C)NC(=O)[C@H](CC2CCCCC2)NC(=O)[C@H](CCN)NC(=O)[C@@H](CC(C)C)NC(=O)[C@H](C)N(C)C1=O (stereo partly drawn) [Example 2388] ({CH2CO}-RY(Carboxymethyl)D[Phe(3-Me)]V[Bip]K(Ac)[NMeA][dL][Dab][Cha]V[Thr(3ξ)]C[dE][12Ado]-OH; thioether N-14)

same assay, conditions: PE-labeled PD-L1-Ig 20 nM final, Jurkat-hPD-1 cells; read-out: Jurkat HPD1 PDL1 IC50

IC50 [nM]	Structure (SMILES)
70.2	Cc1cccc(C[C@@H]2NC(=O)[C@H](CC(=O)O)NC(=O)[C@H](Cc3ccc(OCC(=O)O)cc3)NC(=O)[C@H](CCN)NC(=O)CSC[C@@H](C(=O)N[C@@H](CCN)C(=O)NCCCCCCCCCCC(=O)O)NC(=O)[C@H](CO)NC(=O)[C@H](C(C)(C)O)NC(=O)[C@H](CC3CCCCC3)NC(=O)[C@H](Cc3c[nH]cn3)NC(=O)[C@@H](CC(C)C)NC(=O)[C@H](C)N(C)C(=O)[C@H](Cc3ccc(OCC(=O)O)cc3)NC(=O)[C@H](Cc3ccc(-c4ccccc4)cc3)NC(=O)[C@H](Cc3ccc(OCC(=O)O)cc3)NC2=O)c1 [Example 2465] ({CH2CO}-[Dab]Y(Carboxymethyl)D[Phe(3-Me)]Y(Carboxymethyl)[Bip]Y(Carboxymethyl)[NMeA][dL]H[Cha][Val(3-OH)]SC[Dab][Aun]-OH; thioether N-14)
